Consider 14 molecules from ChEMBL document CHEMBL3046902, “New dihydropyridine derivatives: anti-inflammatory, analgesic and docking studies” (2013).

Type in all cases: functional
Assay [1] deals with Rattus norvegicus. The experiment in a line: Anti-inflammatory activity in Rattus norvegicus Wistar (rat) assessed as inhibition of carrageenan-induced paw edema at 20 mg/kg administered 30 min prior to carrageenan challenge measured after 0.5 hr by plethysmographic analysis relative to untreated control.
Assay [2] is filed under the species Rattus norvegicus. As to the kind of experiment: Analgesic activity in Rattus norvegicus Wistar (rat) assessed as tail flick latency time after 30 min by tail immersion test (reference value: 3.23 +/- 0.005 secs).
For assay [3], the species on record is Rattus norvegicus. As to the kind of experiment: Analgesic activity in Rattus norvegicus Wistar (rat) assessed as tail flick latency time after 90 min by tail immersion test (reference value: 3.25 +/- 0.005 secs).
The species entered for assay [4] is Rattus norvegicus. The experiment in a line: Analgesic activity in Rattus norvegicus Wistar (rat) assessed as tail flick latency time after 60 min by tail immersion test (reference value: 3.34 +/- 0.005 secs).
The subject of assay [5] is Rattus norvegicus. As to the kind of experiment: Anti-inflammatory activity in Rattus norvegicus Wistar (rat) assessed as inhibition of carrageenan-induced paw edema at 20 mg/kg administered 30 min prior to carrageenan challenge measured after 2 hr by plethysmographic analysis relative to untreated control.
For assay [6], the system named is Rattus norvegicus. As to the kind of experiment: Anti-inflammatory activity in Rattus norvegicus Wistar (rat) assessed as inhibition of carrageenan-induced paw edema at 20 mg/kg administered 30 min prior to carrageenan challenge measured after 1 hr by plethysmographic analysis relative to untreated control.
The subject of assay [7] is Rattus norvegicus. The experiment in a line: Anti-inflammatory activity in Rattus norvegicus Wistar (rat) assessed as inhibition of carrageenan-induced paw edema at 20 mg/kg administered 30 min prior to carrageenan challenge measured after 3 hr by plethysmographic analysis relative to untreated control.

Structures are written as SMILES.

Turning to `CCOC(=O)C1=C(C)NC(C)=C(C(=O)OCC)C1c1ccc(OCC(=O)n2nc(C)cc2C)cc1`, the inhibition in vivo at 20 mg/kg in the assay with Rattus norvegicus [1] turned out to be 13.7%. Besides, the values for the Time in the assay listed under Rattus norvegicus [2], in the assay listed under Rattus norvegicus [3] and in the assay filed under Rattus norvegicus [4] were 4.76 s, 6.78 s and 5.93 s, respectively.

With `CCOC(=O)C1=C(C)NC(C)=C(C(=O)OCC)C1c1ccc(OCC(=O)NN2C(=O)c3ccccc3C2=O)cc1`, the Time is listed as 5.03 s in the assay listed under Rattus norvegicus [2], 7.21 s in the assay listed under Rattus norvegicus [3] and 6.16 s in the assay listed under Rattus norvegicus [4].

As for `O=C([O-])Cc1ccccc1Nc1c(Cl)cccc1Cl.[K+]` [DICLOFENAC POTASSIUM], the figures for the Time in the assay listed under Rattus norvegicus [2], in the assay listed under Rattus norvegicus [3] and in the assay listed under Rattus norvegicus [4] were 6.25 s, 7.45 s and 6.95 s, respectively.

For `CCOC(=O)C1=C(C)NC(C)=C(C(=O)OCC)C1c1ccc(OCC(=O)NNC(=O)c2cccs2)cc1`, the inhibition in vivo at 20 mg/kg was 44% in the assay with Rattus norvegicus [1] and 62.2% with Rattus norvegicus [5]. The figures for the Time in the assay listed under Rattus norvegicus [3] and in the assay listed under Rattus norvegicus [4] were 7.02 s and 6.23 s, respectively.

Consider `CCOC(=O)C1=C(C)NC(C)=C(C(=O)OCC)C1c1ccc(OCC(=O)Nc2ccc(C)cc2)cc1`, for which the inhibition in vivo at 20 mg/kg is 43.9% with Rattus norvegicus [1] and 62.2% with Rattus norvegicus [5].

On to `CCOC(=O)C1=C(C)NC(C)=C(C(=O)OCC)C1c1ccc(OCC(=O)NCc2ccccc2)cc1`, for which the figures for the inhibition in vivo at 20 mg/kg with Rattus norvegicus [5] and with Rattus norvegicus [6] were 8.9% and 16.1%, respectively.

For the molecule `CCOC(=O)C1=C(C)NC(C)=C(C(=O)OCC)C1c1ccc(OCC(=O)Nc2nc3ccccc3s2)cc1`, the inhibition in vivo at 20 mg/kg stood at 47.7% in the assay on Rattus norvegicus [1] and 64.5% in the assay on Rattus norvegicus [5]. Moreover, the Time came to 5.28 s in the assay filed under Rattus norvegicus [2] and 6.03 s in the assay listed under Rattus norvegicus [4].

Consider `CCOC(=O)C1=C(C)NC(C)=C(C(=O)OCC)C1c1ccc(OCc2nnc(S)o2)cc1`, for which the figures for the inhibition in vivo at 20 mg/kg with Rattus norvegicus [1] and in the assay on Rattus norvegicus [5] were 42.4% and 61.7%, respectively. For the same molecule, the Time in the assay listed under Rattus norvegicus [2] is 4.97 s; in the assay listed under Rattus norvegicus [3], 6.97 s; in the assay listed under Rattus norvegicus [4] it was 6.07 s.

On to `O=C(O)Cc1ccccc1Nc1c(Cl)cccc1Cl` [DICLOFENAC SODIUM], for which the inhibition in vivo at 20 mg/kg in the assay with Rattus norvegicus [1] worked out at 16.7%; in the assay with Rattus norvegicus [7] it was 65.3%; in the assay on Rattus norvegicus [5], 61.1%; in the assay with Rattus norvegicus [6], 41%.

Turning to `CCOC(=O)C1=C(C)NC(C)=C(C(=O)OCC)C1c1ccc(OCC(=O)NNC(=O)c2ccccc2)cc1`, the inhibition in vivo at 20 mg/kg with Rattus norvegicus [1] came to 9.1%; with Rattus norvegicus [5] it was 44.5%. Further, the Time in the assay listed under Rattus norvegicus [2] amounted to 4.62 s; in the assay filed under Rattus norvegicus [3], 6.37 s; in the assay filed under Rattus norvegicus [4] it was 5.87 s.

Turning to `CCOC(=O)C1=C(C)NC(C)=C(C(=O)OCC)C1c1ccc(OCC(=O)NNC(=O)c2ccsc2Cl)cc1`, the inhibition in vivo at 20 mg/kg in the assay on Rattus norvegicus [1] worked out at 12.9%. Further, the Time in the assay listed under Rattus norvegicus [2] was determined as 4.85 s; in the assay listed under Rattus norvegicus [3] it was 6.46 s; in the assay filed under Rattus norvegicus [4], 5.74 s.

Turning to `CCOC(=O)C1=C(C)NC(C)=C(C(=O)OCC)C1c1ccc(OCC(=O)NNC(=O)c2sccc2Cl)cc1`, the Time in the assay listed under Rattus norvegicus [2] amounted to 4.34 s; in the assay listed under Rattus norvegicus [3], 6.45 s; in the assay filed under Rattus norvegicus [4] it was 5.67 s. The inhibition in vivo at 20 mg/kg in the assay with Rattus norvegicus [5] stood at 57.2%.

On to `CCOC(=O)C1=C(C)NC(C)=C(C(=O)OCC)C1c1ccc(OCC(=O)Nc2c(C)cccc2C)cc1`, for which the results for the inhibition in vivo at 20 mg/kg in the assay on Rattus norvegicus [1] and with Rattus norvegicus [5] were 15.9% and 47.8%, respectively.

Consider `CCOC(=O)C1=C(C)NC(C)=C(C(=O)OCC)C1c1ccc(OCC(=O)NNC(=O)CCC(=O)O)cc1`, for which the values for the Time in the assay listed under Rattus norvegicus [2], in the assay listed under Rattus norvegicus [3] and in the assay filed under Rattus norvegicus [4] were 4.96 s, 6.87 s and 6.07 s, respectively.
